Results published in ChEMBL document CHEMBL3045535, “Evaluation of lufenuron as a chemosterilant against fruit flies of the genus Anastrepha (Diptera: Tephritidae)” (2010).
Active and inactive are the calls of the source. No cut-off for these calls is given here.

How the values were obtained:
Anastrepha striata [1] = assay: Reduction of fertility in 7 days old adult of Anastrepha striata assessed as reduction of egg hatching at 1 mg/g treated with diet measured after 1 day oviposition; format: functional; parameters: scale not given: the % may be the effect or the level left
Anastrepha serpentina [2] = assay: Effect on fecundity in 7 days old adult female of Anastrepha serpentina at 30 mg/g treated with diet after 24 hr in presence of untreated adult male of Anastrepha serpentina; format: functional, organism-based
Anastrepha striata [3] = assay: Reduction of fertility in 7 days old adult of Anastrepha striata assessed as reduction of egg hatching at 5 mg/g treated with diet measured after 5 days oviposition; format: functional; parameters: scale not given: the % may be the effect or the level left
Anastrepha obliqua [4] = assay: Reduction of fertility in 7 days old adult of Anastrepha obliqua assessed as reduction of egg hatching at 5 mg/g treated with diet measured after 3 days oviposition; format: functional; parameters: scale not given: the % may be the effect or the level left
Anastrepha striata [5] = assay: Reduction of fertility in 7 days old adult of Anastrepha striata assessed as reduction of egg hatching at 0.1 mg/g treated with diet measured after 1 day oviposition; format: functional; parameters: scale not given: the % may be the effect or the level left
Anastrepha serpentina [6] = assay: Reduction of fertility in 7 days old adult of Anastrepha serpentina assessed as reduction of egg hatching at 10 mg/g treated with diet measured after 11 days oviposition; format: functional; parameters: scale not given: the % may be the effect or the level left
Anastrepha serpentina [7] = assay: Reduction of fertility in 7 days old adult of Anastrepha serpentina assessed as reduction of egg hatching at 1 mg/g treated with diet measured after 5 days oviposition; format: functional; parameters: scale not given: the % may be the effect or the level left
Anastrepha ludens [8] = assay: Reduction of fertility in 7 days old adult of Anastrepha ludens assessed as reduction of egg hatching at 10 mg/g treated with diet measured after 7 days oviposition; format: functional; parameters: scale not given: the % may be the effect or the level left
Anastrepha obliqua [9] = assay: Reduction of fertility in 7 days old adult of Anastrepha obliqua assessed as reduction of egg hatching at 5 mg/g treated with diet measured after 7 days oviposition; format: functional; parameters: scale not given: the % may be the effect or the level left
Anastrepha serpentina [10] = assay: Reduction of fertility in 7 days old adult of Anastrepha serpentina assessed as reduction of egg hatching at 0.1 mg/g treated with diet measured after 3 days oviposition; format: functional; parameters: scale not given: the % may be the effect or the level left
Anastrepha striata [11] = assay: Reduction of fertility in 7 days old adult of Anastrepha striata assessed as reduction of egg hatching at 0.5 mg/g treated with diet measured after 3 days oviposition; format: functional; parameters: scale not given: the % may be the effect or the level left
Anastrepha obliqua [12] = assay: Reduction of fertility in 7 days old adult of Anastrepha obliqua assessed as reduction of egg hatching at 0.1 mg/g treated with diet measured after 11 days oviposition; format: functional; parameters: scale not given: the % may be the effect or the level left
Anastrepha serpentina [13] = assay: Effect on fertility in 7 days old adult female of Anastrepha serpentina at 30 mg/g treated with diet after 24 hr in presence of untreated adult male of Anastrepha serpentina; format: functional, organism-based
Anastrepha ludens [14] = assay: Reduction of fertility in 7 days old adult of Anastrepha ludens assessed as reduction of egg hatching at 5 mg/g treated with diet measured after 11 days oviposition; format: functional; parameters: scale not given: the % may be the effect or the level left
Anastrepha striata [15] = assay: Reduction of fertility in 7 days old adult of Anastrepha striata assessed as reduction of egg hatching at 1 mg/g treated with diet measured after 11 days oviposition; format: functional; parameters: scale not given: the % may be the effect or the level left
Anastrepha serpentina [16] = assay: Reduction of fertility in 7 days old adult of Anastrepha serpentina assessed as reduction of egg hatching at 30 mg/g treated with diet measured after 1 day oviposition; format: functional; parameters: scale not given: the % may be the effect or the level left
Anastrepha striata [17] = assay: Reduction of fertility in 7 days old adult of Anastrepha striata assessed as reduction of egg hatching at 30 mg/g treated with diet measured after 1 day oviposition; format: functional; parameters: scale not given: the % may be the effect or the level left
Anastrepha serpentina [18] = assay: Reduction of fertility in 7 days old adult of Anastrepha serpentina assessed as reduction of egg hatching at 5 mg/g treated with diet measured after 1 day oviposition; format: functional; parameters: scale not given: the % may be the effect or the level left
Anastrepha ludens [19] = assay: Reduction of fertility in 7 days old adult of Anastrepha ludens assessed as reduction of egg hatching at 0.5 mg/g treated with diet measured after 1 day oviposition; format: functional; parameters: scale not given: the % may be the effect or the level left
Anastrepha serpentina [20] = assay: Reduction of fertility in 7 days old adult of Anastrepha serpentina assessed as reduction of egg hatching at 1 mg/g treated with diet measured after 11 days oviposition; format: functional; parameters: scale not given: the % may be the effect or the level left
Anastrepha serpentina [21] = assay: Reduction of fertility in 7 days old adult of Anastrepha serpentina assessed as reduction of egg hatching at 0.5 mg/g treated with diet measured after 11 days oviposition; format: functional; parameters: scale not given: the % may be the effect or the level left
Anastrepha ludens [22] = assay: Reduction of fertility in 7 days old adult of Anastrepha ludens assessed as reduction of egg hatching at 0.1 mg/g treated with diet measured after 9 days oviposition; format: functional; parameters: scale not given: the % may be the effect or the level left
Anastrepha serpentina [23] = assay: Reduction of fertility in 7 days old adult of Anastrepha serpentina assessed as reduction of egg hatching at 1 mg/g treated with diet measured after 1 day oviposition; format: functional; parameters: scale not given: the % may be the effect or the level left
Anastrepha striata [24] = assay: Reduction of fertility in 7 days old adult of Anastrepha striata assessed as reduction of egg hatching at 10 mg/g treated with diet measured after 9 days oviposition; format: functional; parameters: scale not given: the % may be the effect or the level left
Anastrepha ludens [25] = assay: Reduction of fertility in 7 days old adult of Anastrepha ludens assessed as reduction of egg hatching at 1 mg/g treated with diet measured after 7 days oviposition; format: functional; parameters: scale not given: the % may be the effect or the level left
Anastrepha ludens [26] = assay: Reduction of fertility in 7 days old adult of Anastrepha ludens assessed as reduction of egg hatching at 0.1 mg/g treated with diet measured after 1 day oviposition; format: functional; parameters: scale not given: the % may be the effect or the level left
Anastrepha ludens [27] = assay: Reduction of fertility in 7 days old adult of Anastrepha ludens assessed as reduction of egg hatching at 30 mg/g treated with diet measured after 3 days oviposition; format: functional; parameters: scale not given: the % may be the effect or the level left
Anastrepha obliqua [28] = assay: Reduction of fertility in 7 days old adult of Anastrepha obliqua assessed as reduction of egg hatching at 30 mg/g treated with diet measured after 3 days oviposition; format: functional; parameters: scale not given: the % may be the effect or the level left
Anastrepha serpentina [29] = assay: Reduction of fertility in 7 days old adult of Anastrepha serpentina assessed as reduction of egg hatching at 10 mg/g treated with diet measured after 1 day oviposition; format: functional; parameters: scale not given: the % may be the effect or the level left
Anastrepha striata [30] = assay: Reduction of fertility in 7 days old adult of Anastrepha striata assessed as reduction of egg hatching at 0.1 mg/g treated with diet measured after 3 days oviposition; format: functional; parameters: scale not given: the % may be the effect or the level left
Anastrepha obliqua [31] = assay: Reduction of fertility in 7 days old adult of Anastrepha obliqua assessed as reduction of egg hatching at 30 mg/g treated with diet measured after 7 days oviposition; format: functional; parameters: scale not given: the % may be the effect or the level left
Anastrepha striata [32] = assay: Reduction of fertility in 7 days old adult of Anastrepha striata assessed as reduction of egg hatching at 0.1 mg/g treated with diet measured after 5 days oviposition; format: functional; parameters: scale not given: the % may be the effect or the level left
Anastrepha ludens [33] = assay: Reduction of fertility in 7 days old adult of Anastrepha ludens assessed as reduction of egg hatching at 1 mg/g treated with diet measured after 3 days oviposition; format: functional; parameters: scale not given: the % may be the effect or the level left
Anastrepha obliqua [34] = assay: Reduction of fertility in 7 days old adult of Anastrepha obliqua assessed as reduction of egg hatching at 0.1 mg/g treated with diet measured after 9 days oviposition; format: functional; parameters: scale not given: the % may be the effect or the level left
Anastrepha obliqua [35] = assay: Reduction of fertility in 7 days old adult of Anastrepha obliqua assessed as reduction of egg hatching at 10 mg/g treated with diet measured after 5 days oviposition; format: functional; parameters: scale not given: the % may be the effect or the level left
Anastrepha ludens [36] = assay: Reduction of fertility in 7 days old adult of Anastrepha ludens assessed as reduction of egg hatching at 0.1 mg/g treated with diet measured after 7 days oviposition; format: functional; parameters: scale not given: the % may be the effect or the level left
Anastrepha obliqua [37] = assay: Reduction of fertility in 7 days old adult of Anastrepha obliqua assessed as reduction of egg hatching at 0.5 mg/g treated with diet measured after 11 days oviposition; format: functional; parameters: scale not given: the % may be the effect or the level left
Anastrepha striata [38] = assay: Reduction of fertility in 7 days old adult of Anastrepha striata assessed as reduction of egg hatching at 0.5 mg/g treated with diet measured after 1 day oviposition; format: functional; parameters: scale not given: the % may be the effect or the level left
Anastrepha striata [39] = assay: Reduction of fertility in 7 days old adult of Anastrepha striata assessed as reduction of egg hatching at 1 mg/g treated with diet measured after 3 days oviposition; format: functional; parameters: scale not given: the % may be the effect or the level left
Anastrepha striata [40] = assay: Reduction of fertility in 7 days old adult of Anastrepha striata assessed as reduction of egg hatching at 5 mg/g treated with diet measured after 9 days oviposition; format: functional; parameters: scale not given: the % may be the effect or the level left
Anastrepha ludens [41] = assay: Reduction of fertility in 7 days old adult of Anastrepha ludens assessed as reduction of egg hatching at 30 mg/g treated with diet measured after 7 days oviposition; format: functional; parameters: scale not given: the % may be the effect or the level left

**Q.** `O=C(NC(=O)c1c(F)cccc1F)Nc1cc(Cl)c(OC(F)(F)C(F)C(F)(F)F)cc1Cl` (racemic) [LUFENURON] was tested. Which Activity (Anastrepha striata [1]) did it give?
**A.** 6.7%

**Q.** What about the Activity (Anastrepha serpentina [2]) of the same compound?
**A.** inactive

**Q.** What about the Activity (Anastrepha striata [3]) of the same compound?
**A.** 2.7%

**Q.** And the Activity (Anastrepha obliqua [4])?
**A.** 2.7%

**Q.** And the Activity (Anastrepha striata [5])?
**A.** 48.7%

**Q.** What about the Activity (Anastrepha serpentina [6]) of the same compound?
**A.** 79.3%

**Q.** What about the Activity (Anastrepha serpentina [7]) of the same compound?
**A.** 71.8%

**Q.** What about the Activity (Anastrepha ludens [8]) of the same compound?
**A.** 13.3%

**Q.** And the Activity (Anastrepha obliqua [9])?
**A.** 0%

**Q.** What about the Activity (Anastrepha serpentina [10]) of the same compound?
**A.** 95%

**Q.** What about the Activity (Anastrepha striata [11]) of the same compound?
**A.** 22.7%

**Q.** And the Activity (Anastrepha obliqua [12])?
**A.** 10.7%

**Q.** And the Activity (Anastrepha serpentina [13])?
**A.** inactive

**Q.** What about the Activity (Anastrepha ludens [14]) of the same compound?
**A.** 32.7%

**Q.** And the Activity (Anastrepha striata [15])?
**A.** 8.7%

**Q.** And the Activity (Anastrepha serpentina [16])?
**A.** 49.2%

**Q.** And the Activity (Anastrepha striata [17])?
**A.** 8.7%

**Q.** What about the Activity (Anastrepha serpentina [18]) of the same compound?
**A.** 34.8%

**Q.** And the Activity (Anastrepha ludens [19])?
**A.** 8.7%

**Q.** And the Activity (Anastrepha serpentina [20])?
**A.** 91.2%

**Q.** And the Activity (Anastrepha serpentina [21])?
**A.** 86%

**Q.** What about the Activity (Anastrepha ludens [22]) of the same compound?
**A.** 44.7%

**Q.** And the Activity (Anastrepha serpentina [23])?
**A.** 42.7%

**Q.** And the Activity (Anastrepha striata [24])?
**A.** 6%

**Q.** What about the Activity (Anastrepha ludens [25]) of the same compound?
**A.** 20%

**Q.** And the Activity (Anastrepha ludens [26])?
**A.** 26.7%

**Q.** What about the Activity (Anastrepha ludens [27]) of the same compound?
**A.** 2.7%

**Q.** And the Activity (Anastrepha obliqua [28])?
**A.** 0%

**Q.** And the Activity (Anastrepha serpentina [29])?
**A.** 18.3%

**Q.** What about the Activity (Anastrepha striata [30]) of the same compound?
**A.** 80%

**Q.** What about the Activity (Anastrepha obliqua [31]) of the same compound?
**A.** 0.7%

**Q.** And the Activity (Anastrepha striata [32])?
**A.** 60.7%

**Q.** What about the Activity (Anastrepha ludens [33]) of the same compound?
**A.** 9.3%

**Q.** What about the Activity (Anastrepha obliqua [34]) of the same compound?
**A.** 6%

**Q.** What about the Activity (Anastrepha obliqua [35]) of the same compound?
**A.** 0%

**Q.** What about the Activity (Anastrepha ludens [36]) of the same compound?
**A.** 43.3%

**Q.** And the Activity (Anastrepha obliqua [37])?
**A.** 4%

**Q.** And the Activity (Anastrepha striata [38])?
**A.** 13.3%

**Q.** What about the Activity (Anastrepha striata [39]) of the same compound?
**A.** 8%

**Q.** What about the Activity (Anastrepha striata [40]) of the same compound?
**A.** 8.7%

**Q.** And the Activity (Anastrepha ludens [41])?
**A.** 4%
